Read-outs that look alike come from different tables or passages of the source.

Here are results for 13 molecules from publication PMC7559231, “Drug-induced cholestasis assay in primary hepatocytes” (MethodsX, 2020).

Series [1] deals with sandwich-cultured human hepatocytes. The series is described as follows: Drug-induced cholestasis (DIC) assay: urea formation in sandwich-cultured human hepatocytes with and without the bile salt mixture. To be noted: lowest in vitro concentration with DICI < 0.78 / Cmax,total; for DICI-based SM obtained with the ‘original’ LOAEL method 24 h: 24 h incubation; for DICI-based SM obtained with the ‘original’ LOAEL method 48 h: 48 h incubation. The source says:
Drug-induced cholestasis (DIC) is a major cause of attrition during drug development and post-marketing withdrawal. Early detection of DIC is crucial for avoiding financial losses and improving drug safety. Preclinical assays for DIC detection often rely on evaluation of the test compound towards individual cellular targets such as their inhibitory potential towards the bile salt export pump (BSEP) by using BSEP membrane vesicles. However, the underlying mechanisms of DIC development are more complex involving multiple other transporters and nuclear receptors. A more comprehensive in vitro model such as sandwich-cultured human hepatocytes (SCHH) are more suited due to the presence of metabolizing enzymes and transporters relevant to bile salt disposition. The assay described here relies on changes in the ability of SCHH to produce urea from ammonia in the absence and presence of a (patho-)physiologically relevant bile salt mixture. Ammonia is detoxified in the hepatocyte by the urea cycle to form non-toxic urea. Measuring changes in urea production allows for the quantitative evaluation of the hepatocyte's biochemical and functional integrity. The colorimetric quantitation of urea formation is based on the reaction between urea and diacetylmonoxime.
By determining the ratio of urea formation after incubation with test compound in absence and in presence of the bile salt mixture, the DIC index (DICI) value can be calculated. […] It was previously established that a compound with a SM below 30 can be considered to display increased risk for causing cholestasis in the clinic.
If longer incubations are required (e.g. 48 h), the medium is changed again after 24 h (day 6) with fresh medium containing the same initial concentrations of test compound and bile salts as 24 h before.
• Solution 1: culture medium with no compound and 0.2% DMSO. […] This solution should be filtered through a 0.2 µm filter and prewarmed for 30 min at 37°C. • Solution 4: culture medium with double concentrated test compound. […] This solution should be filtered through a 0.2 µm filter and prewarmed for 30 min at 37°C. • Solution 5: control medium with bile salts, prepared by mixing solution 1 and solution 2 in a 1:1 ratio. • Solution 6: culture medium with positive control without bile salts, prepared by mixing solution 1 and solution 3 in a 1:1 ratio. • Solution 7: culture medium with positive control with bile salts, prepared by mixing solution 2 and solution 3 in a 1:1 ratio. • Solution 8: culture medium with test compound without bile salts, prepared by mixing solution 1 and solution 4 in a 1:1 ratio. • Solution 9: culture medium with test compound with bile salts, prepared by mixing solution 2 and solution 4 in a 1:1 ratio.
• 1. On day 5, aspirate the medium and preincubate the cells with solution 1, solution 6 or solution 8 for 2 h. Note: this preincubation step is performed to enable the compounds to interact with the cellular machinery. • 2. After 2 h, aspirate the medium and immediately incubate the cells with solution 1, solution 5, solution 6, solution 7, solution 8 or solution 9 for 22 h.
The urea assay is performed on day 6 or day 7 for 24 h and 48 h incubations, respectively.
• Solutions for the color reagent. […] Note: perform this procedure on ice as this is an exothermic reaction. Wear appropriate protective gear. • ○ Solution B prepared by mixing the thiosemicarbazide solution and the diacetyl monoxime in a 1:1 ratio. • Incubation buffer: HBSS containing 10 mM HEPES, 2 mM glutamine, 10 mM ammonium chloride and 3 mM ornithine, filtered through a 0.2 µm filter and prewarmed at 37°C. • 96-well thermostable plate with aluminum cover slip.
• 1. Aspirate the culture medium. • 2. Wash the wells twice with 250 µL prewarmed incubation buffer. Aspirate the remaining buffer. • 3. Add 125 µL prewarmed incubation buffer to each well and keep the plate at 37°C for 1 h. • 4.

On the set-up of series [2]: method as in per compound in column References of Table 3 ([3], [24]-[44]). As to conditions: mean total peak plasma concentration in humans; ref per compound in Table 3 ([3], [24]-[44]); cited from earlier work.
For series [3], the system named is sandwich-cultured human hepatocytes. To be noted: SCHH, ref [6],[7], cited from earlier work; for DICI 24 h Mean: 24 h exposure; for DICI 48 h Mean: 48 h exposure.

Turning to `COc1ccccc1Oc1c(NS(=O)(=O)c2ccc(C(C)(C)C)cc2)nc(-c2ncccn2)nc1OCCO` [Bosentan, bosentan], in series [1], the “DICI-based SM obtained with the ‘original’ LOAEL method 24 h” value is on record as 27.06 and the “DICI-based SM obtained with the ‘original’ LOAEL method 48 h” value is recorded as 27.06. In addition, the “Cmax,total” value in series [2] is 7.39 µM. Moreover, in series [3] (50 µM test compound), the “DICI 24 h Mean” value was 1.07 and the “DICI 48 h Mean” value was 1.06. In series [3] (100 µM test compound), the “DICI 24 h Mean” value is recorded as 0.99 and the “DICI 48 h Mean” value was 0.87. In series [3] (200 µM test compound), the “DICI 24 h Mean” value was 1.15 and the “DICI 48 h Mean” value is listed as 1.02.
Turning to `CCOC(=O)CN[C@@H](C(=O)N1CC[C@H]1C(=O)NCc1ccc(/C(N)=N\O)cc1)C1CCCCC1` [Ximelagatran, ximelagatran], in series [1], the “DICI-based SM obtained with the ‘original’ LOAEL method 24 h” value turned out to be 500 and the “DICI-based SM obtained with the ‘original’ LOAEL method 48 h” value turned out to be 500. The “Cmax,total” value in series [2] was 0.3 µM. In series [3] (25 µM test compound), the “DICI 24 h Mean” value is given as 0.85 and the “DICI 48 h Mean” value is reported as 0.95. In addition, in series [3] (50 µM test compound), the “DICI 24 h Mean” value is 0.95 and the “DICI 48 h Mean” value is recorded as 0.93. Besides, in series [3] (150 µM test compound), the “DICI 24 h Mean” value is 1.02 and the “DICI 48 h Mean” value is on record as 1.05.
Take `CCc1nn(CCCN2CCN(c3cccc(Cl)c3)CC2)c(=O)n1CCOc1ccccc1` [Nefazodone, nefazodone]: in series [1], the “DICI-based SM obtained with the ‘original’ LOAEL method 48 h” value was 7.04. In addition, the “Cmax,total” value in series [2] is reported as 4.26 µM. The “DICI 24 h Mean” value in series [3] (10 µM test compound) is reported as 0.69; in series [3] (30 µM test compound), 0.77; in series [3] (130 µM test compound), 1.09. Besides, the figures for the “DICI 48 h Mean” value in series [3] (10 µM test compound) and in series [3] (30 µM test compound) were 1.18 and 0.37, respectively.
In the case of `Cc1c(C)c2c(c(C)c1O)CCC(C)(COc1ccc(CC3SC(=O)NC3=O)cc1)O2` (stereo not drawn) [Troglitazone, troglitazone], the “DICI-based SM obtained with the ‘original’ LOAEL method 24 h” value in series [1] is reported as 15.65. Further, the “DICI-based SM obtained with the ‘original’ LOAEL method 48 h” value in series [1] is 15.65. The “Cmax,total” value in series [2] is 6.39 µM. Further, the “DICI 24 h Mean” value is on record as 0.98 in series [3] (20 µM test compound), 1.02 in series [3] (50 µM test compound), 0.78 in series [3] (75 µM test compound) and 0.74 in series [3] (100 µM test compound). For the same molecule, the “DICI 48 h Mean” value in series [3] (20 µM test compound) was 1.09; in series [3] (50 µM test compound), 1.00; in series [3] (75 µM test compound), 0.79; in series [3] (100 µM test compound) it was 0.24.
In the case of `CC(=O)CC(c1ccccc1)c1c(O)c2ccccc2oc1=O` (stereo not drawn) [Warfarin, warfarin], the “DICI-based SM obtained with the ‘original’ LOAEL method 24 h” value in series [1] was determined as 71.74. For the same molecule, in series [3] (500 µM test compound), the “DICI 24 h Mean” value is given as 1.31.
As to `CCC(=O)O[C@@H]1CC(=O)O[C@H](C)C/C=C/C=C/[C@H](O)[C@H](C)C[C@H](CC=O)[C@H](O[C@@H]2O[C@H](C)[C@@H](O[C@H]3C[C@@](C)(O)[C@@H](OC(=O)CC)[C@H](C)O3)[C@H](N(C)C)[C@H]2O)[C@H]1OC` [Midecamycin, midecamycin], in series [1], the “DICI-based SM obtained with the ‘original’ LOAEL method 24 h” value came out at 50 and the “DICI-based SM obtained with the ‘original’ LOAEL method 48 h” value amounted to 50. The “Cmax,total” value in series [2] was 2 µM. In series [3] (100 µM test compound), the “DICI 24 h Mean” value was 0.71 and the “DICI 48 h Mean” value is listed as 1.07.
Regarding `CCN(CC)C(=O)/C(C#N)=C/c1cc(O)c(O)c([N+](=O)[O-])c1` [Entacapone, entacapone], in series [1], the “DICI-based SM obtained with the ‘original’ LOAEL method 24 h” value turned out to be 29.95 and the “DICI-based SM obtained with the ‘original’ LOAEL method 48 h” value is 29.95. In series [2], the “Cmax,total” value is given as 4.34 µM. In series [3] (10 µM test compound), the “DICI 24 h Mean” value is on record as 1.11 and the “DICI 48 h Mean” value was 1.02. Also, in series [3] (30 µM test compound), the “DICI 24 h Mean” value was 1.07 and the “DICI 48 h Mean” value was 0.98. Further, in series [3] (130 µM test compound), the “DICI 24 h Mean” value was 0.62 and the “DICI 48 h Mean” value is listed as 0.10.
On to `CN(CCOc1ccc(CC2SC(=O)NC2=O)cc1)c1ccccn1` (stereo not drawn) [Rosiglitazone, rosiglitazone], for which the “DICI-based SM obtained with the ‘original’ LOAEL method 24 h” value in series [1] is listed as 56.31.
As for `C1CCC(C(CC2CCCCN2)C2CCCCC2)CC1` (stereo not drawn) [Perhexiline, perhexiline], the “DICI-based SM obtained with the ‘original’ LOAEL method 24 h” value in series [1] was 30.09. Further, the “DICI-based SM obtained with the ‘original’ LOAEL method 48 h” value in series [1] came out at 30.09. Also, the “DICI 24 h Mean” value is 1.00 in series [3] (3 µM test compound), 1.03 in series [3] (9 µM test compound) and 1.10 in series [3] (65 µM test compound). For the same molecule, the figures for the “DICI 48 h Mean” value in series [3] (3 µM test compound), in series [3] (9 µM test compound) and in series [3] (65 µM test compound) were 0.80, 0.98 and 1.02, respectively.
As to `CC(C)c1nc(CN(C)C(=O)N[C@H](C(=O)N[C@@H](Cc2ccccc2)C[C@H](O)[C@H](Cc2ccccc2)NC(=O)OCc2cncs2)C(C)C)cs1` [Ritonavir, ritonavir], in series [2], the “Cmax,total” value is 13.24 µM.
In the case of `Clc1ccccc1CN1CCc2sccc2C1` [Ticlopidine, ticlopidine], the “Cmax,total” value in series [2] is recorded as 2.898 µM.
For the molecule `CO[C@H]1C[C@H](O[C@H]2[C@H](C)[C@@H](O[C@@H]3O[C@H](C)C[C@H](N(C)C)[C@H]3OC(C)=O)[C@@H](C)C[C@@]3(CO3)C(=O)[C@H](C)[C@@H](OC(C)=O)[C@@H](C)[C@@H](C)OC(=O)[C@@H]2C)O[C@@H](C)[C@@H]1OC(C)=O` [Troleandomycin, troleandomycin], the “DICI 24 h Mean” value in series [3] (10 µM test compound) is given as 1.00; in series [3] (12.5 µM test compound) it was 1.41; in series [3] (20 µM test compound), 1.12; in series [3] (25 µM test compound), 1.13; in series [3] (50 µM test compound), 0.93; in series [3] (100 µM test compound), 0.97. Further, the “DICI 48 h Mean” value in series [3] (10 µM test compound) is reported as 0.83; in series [3] (20 µM test compound) it was 0.91.
For the molecule `CN(C)C(=N)N=C(N)N` [Metformin, metformin], the “Cmax,total” value in series [2] is 7.75 µM. Moreover, the “DICI 24 h Mean” value was 1.09 in series [3] (150 µM test compound), 1.03 in series [3] (300 µM test compound) and 1.12 in series [3] (900 µM test compound). In addition, the “DICI 48 h Mean” value in series [3] (150 µM test compound) is on record as 1.34; in series [3] (300 µM test compound), 1.26; in series [3] (900 µM test compound) it was 1.18.
